Measurements as given in patent US11666558B2, “Methods of treating intraocular pressure with activators of Tie-2” (EyePoint Pharmaceuticals, Inc., priority 2015, dated 2023).
Entries after “also recorded” stand apart in the source; their conditions may differ. Where a name gives a salt, the structure may show the parent alone. Read-outs that look alike come from different tables or passages of the source.

Legend:
Assay type in all cases: in vivo, New Zealand White rabbits
[1] = General health observations after repeated dosing; details: repeated topical (0.45 or 1.2 mg/eye) and subcutaneous (10 mg/kg) dosing over 7 days
Method: Animals were observed within their cages once daily throughout the study period. […] General health observations were recorded daily beginning on Day 1 and continuing throughout the course of the study.

[2] = Ophthalmic examination (slit-lamp biomicroscopy, modified McDonald-Shadduck Scoring System) after repeated dosing
Method: Prior to placement on study, each animal underwent an ophthalmic examination (slitlamp biomicroscopy and indirect ophthalmoscopy). Ocular findings were scored according to a modified McDonald-Shadduck Scoring System and recorded on a standardized data sheet. The acceptance criteria for placement on study were scores of “0” for all variables.
Ophthalmic examination (slit-lamp biomicroscopy only) was performed at baseline (prior to the start of dosing) and on Days 1, 4, and 8. Ocular findings were scored according to a modified McDonald-Shadduck Scoring System. A slit lamp was used to observe conjunctival discharge, […], […], the cornea, the surface area of cornea involvement, pannus, pupillary response, aqueous flare, cellular flare, iris involvement, and the lens. An indirect ophthalmoscope was used to observe the vitreous, vitral hemorrhage, retinal detachment, retinal hemorrhage, and choroidal/retinal inflammation. Animals were prepared for observation by using a solution (atropine, tropicaminde, or phenylephrine) to dilate the pupils.
Conjunctival discharge was defined as a whitish gray precipitate from the eye. Scoring was as follows.
Conjunctival congestion causes the blood vessels of the eye to become enlarged. Scoring was as follows.
Conjunctival swelling, defined as swelling of the conjunctiva, was scored as follows.

[3] = Plasma concentrations and pharmacokinetic parameters after topical ocular, subcutaneous and intravitreal administration; details: for AUC(0-t): read-out: AUClast (± SE); for concentration at 0.5 hr / concentration at 0.5 h: 0.50 hr
Method: To measure the concentration of Compound 1 in plasma and ocular tissues following topical ocular, subcutaneous, and intravitreal administration, New Zealand White rabbits were administered Compound 1, and plasma and ocular samples were collected at pre-determined time points. Compound 1 formulations were prepared fresh on each day of dosing.
New Zealand White rabbits weighing 2.5 to 3.5 kg were used on this study. Rabbits were housed one per cage. Animals were not fasted and only healthy animals with no ocular illness were used. Two rabbits per group were sacrificed at each of four ocular tissue sampling time points for a total of eight rabbits per group.
Animals were anesthetized for ocular (topical) and intravitreal dosing following the 12IA7 IACUC protocol. Each rabbit received a bolus dose of test formulation either via topical ocular administration 3 times daily on Days 1 and 2 (at 0, 6, and 12 hours), and once on Day 3 (at 0 hours) into both eyes; via intravitreal administration into both eyes once on Day 1 (at 0 hours); or via subcutaneous administration 2 times daily on Days 1 and 2 (at 0 and 8 hours) and once daily on Day 3 (at 0 hours). Doses were given within an approximately 1 hour window each day where applicable.
Each blood sample was collected on Day 3 post dose at pre-determined time points from the rabbits via an ear vessel and placed into chilled polypropylene tubes containing sodium heparin as an anticoagulant. Samples were spun by centrifuge at 4° C. and 3,000×g for 5 minutes. Samples were maintained chilled throughout processing. Each plasma sample was placed on dry ice and stored in a freezer at −60° C. to −80° C. pending bioanalysis.
An LC-MS/MS method was developed for the determination of Compound 1 in rabbit aqueous tissues (plasma, aqueous and vitreous humor) and solid ocular tissue samples. A pre-study standard curve was analyzed to determine the specificity, range, and lower limit of quantitation of the method. Plasma and tissue homogenate study samples were extracted and analyzed. All the samples were treated identically to the standards.
One eight-point standard curve was used in each analytical batch. To be accepted, each batch must have had at least five of eight standards with accuracy within ±20% of nominal, except at the lower limit of quantification (LLOQ), where ±25% was acceptable.
Pharmacokinetic parameters were calculated from the time course of the plasma concentration. The maximum plasma concentration (Cmax) and time to the maximum plasma drug concentration (Tmax) were the observed values for each concentration-time profiles. The area under the plasma drug concentration-time curve (AUClast, with last being from time 0 to the last quantifiable point) was calculated using the trapezoidal formula. The mean residence time MRTlast was calculated as a ratio of AUMClast (area under the first movement curve) to AUClast.

[4] = New Zealand White, rabbit, plasma, other: intravitreal, 1.55 mg/kg, plasma, intravitreal 2.5 mg/eye (~1.55 mg/kg), solution
[5] = New Zealand White, rabbit, plasma, other: intravitreal, 2.5 mg, plasma, intravitreal 2.5 mg/eye (~1.55 mg/kg), solution
[6] = New Zealand White, rabbit, plasma, other: intravitreal, 2.5 mg/eye, intravitreal 2.5 mg/eye (~1.55 mg/kg), solution, read-out: plasma Average
[7] = New Zealand White, rabbit, plasma, other: intravitreal, 2.5 mg/eye, intravitreal 2.5 mg/eye (~1.55 mg/kg), solution, read-out: plasma Conc., individual rabbit
[8] = New Zealand White, rabbit, plasma, sc, 5 mg/kg, subcutaneous 5 mg/kg/dose, solution
[9] = New Zealand White, rabbit, plasma, subcutaneous, 5 mg/kg/dose, subcutaneous 5 mg/kg/dose, solution, read-out: plasma Average
[10] = New Zealand White, rabbit, plasma, subcutaneous, 5 mg/kg/dose, subcutaneous 5 mg/kg/dose, solution, read-out: plasma Conc., individual rabbit
[11] = New Zealand White, rabbit, plasma, topical or ocular, 0.7 mg/kg, topical ocular 1.2 mg/eye (~0.7 mg/kg/dose), solution
[12] = New Zealand White, rabbit, plasma, topical or ocular, 1.2 mg, topical ocular 1.2 mg/eye (~0.7 mg/kg/dose), solution
[13] = New Zealand White, rabbit, plasma, topical, 1.2 mg/eye, topical ocular 1.2 mg/eye (~0.7 mg/kg/dose), read-out: plasma Average
[14] = plasma, intravitreal solution, normalized by 1.55 mg/kg
[15] = plasma, subcutaneous solution, normalized by 5 mg/kg
[16] = subcutaneous administration, sodium salt solution

COC(=O)N[C@@H](Cc1ccccc1)C(=O)N[C@@H](Cc1ccc(NS(=O)(=O)O)cc1)c1csc(-c2cccs2)n1 [Compound 1 sodium salt]
general health [1]: normal health and activity; also recorded: No adverse effects
mild conjunctival congestion (scores=1), animals affected ([2]; Group 2, 0.45 mg/eye topical BID, Day 1): all five animals
mild conjunctival congestion (scores=1), animals affected ([2]; Group 2, 0.45 mg/eye topical BID, Day 4): two animals
mild conjunctival congestion (scores=1), animals affected ([2]; Group 3, 1.2 mg/eye topical BID, Day 1): two animals
mild conjunctival congestion (scores=1), animals affected ([2]; Group 3, 1.2 mg/eye topical BID, Day 4): two animals
mild conjunctival congestion (scores=1), animals affected ([2]; Group 4, 1.2 mg/eye topical QD, Day 1): one animal
mild conjunctival congestion (scores=1), animals affected ([2]; Group 4, 1.2 mg/eye topical QD, Day 4): one animal
mild conjunctival congestion (scores=1), animals affected ([2]; Group 5, 10 mg/kg subcutaneous BID, Day 1): three animals
mild conjunctival congestion (scores=1), animals affected ([2]; Group 5, 10 mg/kg subcutaneous BID, Day 4): none
ocular anomalies ([2]; all groups, Day 8): No ocular anomalies
relation of mild conjunctival congestion to the test article ([2]; repeated topical and subcutaneous dosing): appeared to be unrelated to the test article
AUC(0-inf) [3, 4]: 956 ng·h/mL
Cmax [3, 4]: 39.8 ng/mL
MRT last [3, 4]: 15.1 h
half-life [3, 4]: 8.08 h
AUC(0-t) [3, 4]: 953 ng·h/mL
Tmax ([3]; New Zealand White, rabbit, plasma, other: intravitreal, 1.55 mg/kg, plasma, intravitreal 2.5 mg/eye (~1.55 mg/kg), solution, read-out: tmax): 3 h
AUC(0-inf) [3, 5]: 956 ng·h/mL
Cmax [3, 5]: 39.8 ± 2.3 ng/mL
MRT last [3, 5]: 15.1 h
half-life [3, 5]: 8.08 h
AUC(0-t) [3, 5]: 953 ± 91.1 ng·h/mL
Tmax ([3]; New Zealand White, rabbit, plasma, other: intravitreal, 2.5 mg, plasma, intravitreal 2.5 mg/eye (~1.55 mg/kg), solution, read-out: tmax): 3 h
concentration at 1 h ([3]; New Zealand White, rabbit, plasma, other: intravitreal, 2.5 mg/eye, intravitreal 2.5 mg/eye (~1.55 mg/kg), solution, 1.0 hr, read-out: plasma Average): 32.3 ng/mL
concentration at 1 h ([3]; New Zealand White, rabbit, plasma, other: intravitreal, 2.5 mg/eye, intravitreal 2.5 mg/eye (~1.55 mg/kg), solution, 1.0 hr, read-out: plasma Conc., individual rabbit): 33.2 ng/mL
concentration at 3 h [3, 6]: 39.8 ng/mL
concentration at 3 h [3, 7]: 37.5 ng/mL
concentration at 6 h ([3]; New Zealand White, rabbit, plasma, other: intravitreal, 2.5 mg/eye, intravitreal 2.5 mg/eye (~1.55 mg/kg), solution, 6.0 hr, read-out: plasma Average): 36.8 ng/mL
concentration at 6 hr ([3]; New Zealand White, rabbit, plasma, other: intravitreal, 2.5 mg/eye, intravitreal 2.5 mg/eye (~1.55 mg/kg), solution, 6.0 hr, read-out: plasma Conc., individual rabbit): 44.3 ng/mL
concentration at 24 hr [3, 6]: 16.9 ng/mL
concentration at 24 hr [3, 7]: 19 ng/mL
concentration at 48 hr [3, 6]: 2.58 ng/mL
concentration at 48 hr [3, 7]: 2.7 ng/mL
concentration at 72 hr [3, 6]: 0.27 ng/mL
concentration at 72 hr [3, 7]: 0.215 ng/mL
AUC(0-t) ([3]; New Zealand White, rabbit, plasma, sc, 5 mg/kg, plasma, subcutaneous 5 mg/kg/dose, solution): 1560 ± 195 ng·h/mL
Tmax ([3]; New Zealand White, rabbit, plasma, sc, 5 mg/kg, plasma, subcutaneous 5 mg/kg/dose, solution, read-out: tmax): 0.25 h
Tmax ([3]; New Zealand White, rabbit, plasma, sc, 5 mg/kg, subcutaneous administration, solution, read-out: Mean plasma Tmax (converted)): 0.25 h
AUC(0-inf) [3, 8]: 1560 ng·h/mL
Cmax [3, 8]: 1520 ± 115 ng/mL
MRT last [3, 8]: 0.87 h
half-life [3, 8]: 0.47 h
concentration at 0.25 hr [3, 9]: 1520 ng/mL
concentration at 0.25 hr [3, 10]: 1640 ng/mL
concentration at 0.5 hr [3, 9]: 1100 ng/mL
concentration at 0.5 hr [3, 10]: 883 ng/mL
concentration at 1 hr ([3]; New Zealand White, rabbit, plasma, subcutaneous, 5 mg/kg/dose, subcutaneous 5 mg/kg/dose, solution, 1.0 hr, read-out: plasma Average): 646 ng/mL
concentration at 1 h ([3]; New Zealand White, rabbit, plasma, subcutaneous, 5 mg/kg/dose, subcutaneous 5 mg/kg/dose, solution, 1.0 hr, read-out: plasma Conc., individual rabbit): 664 ng/mL
concentration at 2 h ([3]; New Zealand White, rabbit, plasma, subcutaneous, 5 mg/kg/dose, subcutaneous 5 mg/kg/dose, solution): 180 ng/mL
concentration at 4 h [3, 9]: 7.76 ng/mL
concentration at 4 h [3, 10]: 7.98 ng/mL
AUC(0-t) ([3]; New Zealand White, rabbit, plasma, topical or ocular, 0.7 mg/kg, plasma, topical ocular 1.2 mg/eye (~0.7 mg/kg/dose), solution): 11.8 ng·h/mL
Tmax ([3]; New Zealand White, rabbit, plasma, topical or ocular, 0.7 mg/kg, plasma, topical ocular 1.2 mg/eye (~0.7 mg/kg/dose), solution, read-out: tmax): 4 h
Cmax [3, 11]: 7.48 ng/mL
MRT last [3, 11]: 2.98 h
AUC(0-t) ([3]; New Zealand White, rabbit, plasma, topical or ocular, 1.2 mg, plasma, topical ocular 1.2 mg/eye (~0.7 mg/kg/dose), solution): 11.8 ± 5.7 ng·h/mL
Tmax ([3]; New Zealand White, rabbit, plasma, topical or ocular, 1.2 mg, plasma, topical ocular 1.2 mg/eye (~0.7 mg/kg/dose), solution, read-out: tmax): 4 h
Cmax [3, 12]: 7.48 ± 5.53 ng/mL
MRT last [3, 12]: 2.98 h
concentration at 0.5 h [3, 13]: 3.03 ng/mL
concentration at 0.5 h ([3]; New Zealand White, rabbit, plasma, topical, 1.2 mg/eye, topical ocular 1.2 mg/eye (~0.7 mg/kg/dose), read-out: plasma Conc., individual rabbit): 3.84 ng/mL
concentration at 1 h ([3]; New Zealand White, rabbit, plasma, topical, 1.2 mg/eye, topical ocular 1.2 mg/eye (~0.7 mg/kg/dose), 1.0 hr, read-out: plasma Average): 1.46 ng/mL
concentration at 1 h ([3]; New Zealand White, rabbit, plasma, topical, 1.2 mg/eye, topical ocular 1.2 mg/eye (~0.7 mg/kg/dose), 1.0 hr, read-out: plasma Conc., individual rabbit): 1.28 ng/mL
concentration at 2 h ([3]; New Zealand White, rabbit, plasma, topical, 1.2 mg/eye, topical ocular 1.2 mg/eye (~0.7 mg/kg/dose)): 1.14 ng/mL
concentration at 4 h [3, 13]: 7.48 ng/mL
Mean plasma Cmax, fold higher than Compound 1 (free acid) suspension ([3]; intravitreal administration, sodium salt solution): approximately 2 fold
Dose normalized AUClast [3, 14]: 615 kg·ng·h/mL/mg
Dose normalized AUC∞ [3, 14]: 617 kg·ng·h/mL/mg
Dose normalized AUClast ([3]; plasma, intravitreal solution, normalized by 1.55 mg/kg, listed as Compound 1 (sodium salt)): 615 ± 58.8 kg·ng·h/mL/mg
Dose normalized AUClast [3, 15]: 311 kg·ng·h/mL/mg
Dose normalized AUC∞ [3, 15]: 312 kg·ng·h/mL/mg
Dose normalized AUClast ([3]; plasma, subcutaneous solution, normalized by 5 mg/kg, listed as Compound 1 (sodium salt)): 311 ± 38.9 kg·ng·h/mL/mg
Dose normalized AUClast ([3]; plasma, topical ocular, normalized by 0.7 mg/kg): 16.8 kg·ng·h/mL/mg
Dose normalized AUClast ([3]; plasma, topical ocular, normalized by 0.7 mg/kg, listed as Compound 1 (sodium salt)): 16.8 ± 8.15 kg·ng·h/mL/mg
Mean plasma AUClast, fold higher than Compound 1 (free acid) suspension [3, 16]: approximately 2 fold
Mean plasma Cmax, fold higher than Compound 1 (free acid) suspension [3, 16]: approximately 3 fold
